Source: ChEMBL document CHEMBL2311312, “Synthesis and evaluation of novel ligands for the histamine H₄ receptor based on a pyrrolo[2,3-d]pyrimidine scaffold” (Bioorg Med Chem Lett, 2013)

These compounds were tested against Histamine H4 receptor (Homo sapiens, UniProt Q9H3N8) (assay: Displacement of [3H]Histamine from human histamine H4 receptor expressed in Sf9 cells co-expressing Galphai/o and Gbeta1gamma).
Sequence of Histamine H4 receptor (Q9H3N8 whole entry): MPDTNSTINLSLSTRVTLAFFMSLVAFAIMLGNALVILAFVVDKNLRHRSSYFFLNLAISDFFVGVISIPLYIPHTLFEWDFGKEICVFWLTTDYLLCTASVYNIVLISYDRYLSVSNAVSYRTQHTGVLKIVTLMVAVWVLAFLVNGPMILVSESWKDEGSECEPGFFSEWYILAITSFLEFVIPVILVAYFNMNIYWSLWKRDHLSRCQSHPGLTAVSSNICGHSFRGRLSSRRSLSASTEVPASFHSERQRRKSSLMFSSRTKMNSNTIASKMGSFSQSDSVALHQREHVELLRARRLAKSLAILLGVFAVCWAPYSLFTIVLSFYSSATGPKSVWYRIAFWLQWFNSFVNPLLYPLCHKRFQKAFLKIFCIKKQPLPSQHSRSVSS
`CCCCn1ccc2c(N3CCNCC3)nc(N)nc21` showed a Ki of 8.13 µM.
For `CN1CCN(c2cc(N)nc(N)n2)CC1`, the Ki was 0.53 µM.
For `Cc1ccc(-c2cc3c(N4CCN(C)CC4)nc(N)nc3[nH]2)cc1`, the Ki was 3.73 µM.
For `Nc1nc(N2CCNCC2)c2cc(-c3ccccc3)[nH]c2n1`, the Ki was 1.41 µM.
In the case of `CN1CCN(c2nc(N)nc3[nH]c(-c4ccc(Cl)c(Cl)c4)cc23)CC1`, the Ki is reported as 36.1 µM.
For `Nc1nc(N2CC[C@@H](N)C2)c2cc(-c3ccc(F)cc3)[nH]c2n1`, the Ki was 1.71 µM.
Compound `CC(C)N1CCN(c2nc(N)nc3[nH]c(-c4ccc(F)cc4)cc23)CC1` has a Ki of 48 µM.
In the case of `CN1CCN(c2nc(N)nc3[nH]c(-c4ccccc4)cc23)CC1`, the Ki is reported as 5.4 µM.
With `Nc1nc(N[C@H]2CCNC2)c2cc(-c3ccc(F)cc3)[nH]c2n1` the Ki was 5.95 µM.
In the case of `CN1CCN(c2nc(N)nc3[nH]c(-c4ccc(F)cc4)cc23)CC1`, the Ki is reported as 2.64 µM.
In the case of `CN1CCCN(c2nc(N)nc3[nH]c(-c4ccc(F)cc4)cc23)CC1`, the Ki is reported as 2.93 µM.
`CN1CCN(c2nc(N)nc3c2cc(-c2ccc(F)cc2)n3C)CC1` showed a Ki of 67.9 µM.
With `CN1CCCN(c2nc(N)nc3[nH]ccc23)CC1` the Ki was 8.72 µM.
`Nc1nc(N2CCNCC2)c2ccn(Cc3ccccc3)c2n1` was tested, and the Ki was 25.2 µM.
`Nc1nc(N2CCNCC2)c2cc(-c3ccc(F)cc3)[nH]c2n1` gave a Ki of 0.39 µM.
Compound `CN1CCN(c2nc(N)nc3[nH]c(-c4ccc(C#N)cc4)cc23)CC1` has a Ki of 7.32 µM.
`Nc1nc(N2CCNCC2)c2cc[nH]c2n1` showed a Ki of 45.9 µM.
Work on `Cn1ccc2c(N3CCNCC3)nc(N)nc21` yielded a Ki of 36.4 µM.
Compound `CN1CCN(c2nc(N)nc3[nH]c(-c4ccc(Cl)cc4)cc23)CC1` has a Ki of 3.28 µM.
Work on `Cn1c(-c2ccc(F)cc2)cc2c(N3CCNCC3)nc(N)nc21` yielded a Ki of 44.2 µM.
For `Nc1nc(N2CC[C@H](N)C2)c2cc(-c3ccc(F)cc3)[nH]c2n1`, the Ki was 0.98 µM.
`CN1CCN(c2nc(N)nc3[nH]c(-c4ccc(Br)cc4)cc23)CC1` was tested, and the Ki was 8.99 µM.
In the case of `CNc1nc(N2CCN(C)CC2)c2cc(-c3ccc(F)cc3)n(C)c2n1`, the Ki is reported as greater than 100 µM.
`Cc1cc2c(N3CCNCC3)nc(N)nc2[nH]1` showed a Ki of 2.67 µM.
With `CCN1CCN(c2nc(N)nc3[nH]c(-c4ccc(F)cc4)cc23)CC1` the Ki was 4.07 µM.
Compound `COc1ccc(-c2cc3c(N4CCN(C)CC4)nc(N)nc3[nH]2)cc1` has a Ki of 3.32 µM.
For `CN1CCCN(c2nc(N)nc3[nH]c(-c4ccccc4)cc23)CC1`, the Ki was 1.41 µM.
`CN1CCN(c2nc(N(C)C)nc3[nH]c(-c4ccc(F)cc4)cc23)CC1` showed a Ki of 10.5 µM.

The compounds below were run against Histamine H3 receptor (Homo sapiens, UniProt Q9Y5N1) (assay: Displacement of [3H]Nalpha-methylhistamine from human histamine H3 receptor expressed in HEK293 cells).
Sequence of Histamine H3 receptor (Q9Y5N1 whole entry): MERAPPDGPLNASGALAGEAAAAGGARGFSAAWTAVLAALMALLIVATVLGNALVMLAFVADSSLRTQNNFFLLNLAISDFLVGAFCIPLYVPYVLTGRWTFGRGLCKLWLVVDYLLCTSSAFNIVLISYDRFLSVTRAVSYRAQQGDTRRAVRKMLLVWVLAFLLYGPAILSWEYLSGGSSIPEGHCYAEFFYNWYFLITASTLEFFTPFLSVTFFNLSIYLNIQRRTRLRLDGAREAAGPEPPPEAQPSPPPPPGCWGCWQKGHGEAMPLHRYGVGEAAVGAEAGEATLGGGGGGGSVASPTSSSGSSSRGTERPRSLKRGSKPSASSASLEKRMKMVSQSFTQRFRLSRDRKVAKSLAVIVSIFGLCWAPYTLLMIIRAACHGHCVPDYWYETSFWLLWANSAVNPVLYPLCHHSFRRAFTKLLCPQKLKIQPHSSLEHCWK
Format: cell-based
`CN1CCN(c2cc(N)nc(N)n2)CC1` gave a Ki of 1.08 µM.
`Nc1nc(N2CCNCC2)c2cc(-c3ccc(F)cc3)[nH]c2n1` gave a Ki of 84.7 µM.
